Assay results published in US10681909B2, “Herbicidal triazoles” (FMC Corporation, priority 2014, dated 2020).

Columns and labels:
[1] = tested on: corn; test: Test A postemergence; type: in vivo, Zea mays; conditions: 0 to 100 scale (0 no effect, 100 complete control), approx. 10 d
Procedure, shortened: (§1)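 Test chemicals, formulated in a surfactant-containing non-phytotoxic solvent mixture, are applied either as a directed soil spray to newly planted seeds or as a postemergence application to plants at the one- to two-leaf stage (2–10 cm). All plants grow in a loam soil and sand blend.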

[2] = tested on: morningglory; test: Test A preemergence; type: in vivo, Ipomoea spp.; conditions: 0 to 100 scale (0 no effect, 100 complete control)
Procedure, shortened: as §1

[3] = tested on: crabgrass, large; test: Test A postemergence; type: in vivo, Digitaria sanguinalis; conditions: 0 to 100 scale (0 no effect, 100 complete control), approx. 10 d
Procedure, shortened: as §1

[4] = tested on: barnyardgrass; test: Test A preemergence; type: in vivo, Echinochloa crus-galli; conditions: 0 to 100 scale (0 no effect, 100 complete control)
Procedure, shortened: as §1

[5] = tested on: crabgrass, large; test: Test A preemergence; type: in vivo, Digitaria sanguinalis; conditions: 0 to 100 scale (0 no effect, 100 complete control)
Procedure, shortened: as §1

[6] = tested on: sedge, umbrella; test: Test B flooded paddy test; type: in vivo, Cyperus difformis; conditions: applied to paddy water at 2-leaf stage, visual rating after 13 to 15 d, scale 0 (no effect) to 100 (complete control)
Procedure, shortened: (§2)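 Pots were flooded to 3 cm above the soil at treatment, and compounds were applied directly into the paddy water. That depth was held throughout. After 13 to 15 d in a greenhouse, plants were rated visually against untreated controls.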

[7] = tested on: barnyardgrass; test: Test B flooded paddy test; type: in vivo, Echinochloa crus-galli; conditions: applied to paddy water at 2-leaf stage, visual rating after 13 to 15 d, scale 0 (no effect) to 100 (complete control)
Procedure, shortened: as §2

[8] = tested on: velvetleaf; test: Test A preemergence; type: in vivo, Abutilon theophrasti; conditions: 0 to 100 scale (0 no effect, 100 complete control)
Procedure, shortened: as §1

[9] = tested on: morningglory; test: Test A postemergence; type: in vivo, Ipomoea spp.; conditions: 0 to 100 scale (0 no effect, 100 complete control), approx. 10 d
Procedure, shortened: as §1

[10] = tested on: pigweed; test: Test A postemergence; type: in vivo, Amaranthus retroflexus; conditions: 0 to 100 scale (0 no effect, 100 complete control), approx. 10 d
Procedure, shortened: as §1

[11] = tested on: rice; test: Test B flooded paddy test; type: in vivo, Oryza sativa; conditions: applied to paddy water at 2-leaf stage, visual rating after 13 to 15 d, scale 0 (no effect) to 100 (complete control)
Procedure, shortened: as §2

[12] = tested on: pigweed; test: Test A preemergence; type: in vivo, Amaranthus retroflexus; conditions: 0 to 100 scale (0 no effect, 100 complete control)
Procedure, shortened: as §1

[13] = tested on: foxtail, giant; test: Test A postemergence; type: in vivo, Setaria faberii; conditions: 0 to 100 scale (0 no effect, 100 complete control), approx. 10 d
Procedure, shortened: as §1

[14] = tested on: barnyardgrass; test: Test A postemergence; type: in vivo, Echinochloa crus-galli; conditions: 0 to 100 scale (0 no effect, 100 complete control), approx. 10 d
Procedure, shortened: as §1

[15] = tested on: foxtail, giant; test: Test A preemergence; type: in vivo, Setaria faberii; conditions: 0 to 100 scale (0 no effect, 100 complete control)
Procedure, shortened: as §1

[16] = tested on: wheat; test: Test A preemergence; type: in vivo, Triticum aestivum; conditions: 0 to 100 scale (0 no effect, 100 complete control)
Procedure, shortened: as §1

[17] = tested on: velvetleaf; test: Test A postemergence; type: in vivo, Abutilon theophrasti; conditions: 0 to 100 scale (0 no effect, 100 complete control), approx. 10 d
Procedure, shortened: as §1

[18] = tested on: corn; test: Test A preemergence; type: in vivo, Zea mays; conditions: 0 to 100 scale (0 no effect, 100 complete control)
Procedure, shortened: as §1

[19] = tested on: wheat; test: Test A postemergence; type: in vivo, Triticum aestivum; conditions: 0 to 100 scale (0 no effect, 100 complete control), approx. 10 d
Procedure, shortened: as §1

[20] = tested on: ducksalad; test: Test B flooded paddy test; type: in vivo, Heteranthera limosa; conditions: applied to paddy water at 2-leaf stage, visual rating after 13 to 15 d, scale 0 (no effect) to 100 (complete control)
Procedure, shortened: as §2

Structure (SMILES)	Plant response rating, Corn ([1]; 125 g ai/ha)	Plant response rating, Corn ([1]; 500 g ai/ha)	Plant response rating, Morningglory ([2]; 125 g ai/ha)	Plant response rating, Morningglory ([2]; 500 g ai/ha, approx. 10 d)	Plant response rating, Crabgrass, Large ([3]; 125 g ai/ha)	Plant response rating, Crabgrass, Large ([3]; 500 g ai/ha)	Plant response rating, Barnyardgrass ([4]; 125 g ai/ha)	Plant response rating, Barnyardgrass ([4]; 500 g ai/ha, approx. 10 d)	Plant response rating, Crabgrass, Large ([5]; 125 g ai/ha)	Plant response rating, Crabgrass, Large ([5]; 500 g ai/ha, approx. 10 d)	Plant response rating, Velvetleaf ([8]; 125 g ai/ha)	Plant response rating, Velvetleaf ([8]; 500 g ai/ha, approx. 10 d)	Plant response rating, Morningglory ([9]; 125 g ai/ha)	Plant response rating, Morningglory ([9]; 500 g ai/ha)	Plant response rating, Pigweed ([10]; 125 g ai/ha)	Plant response rating, Pigweed ([10]; 500 g ai/ha)	Plant response rating, Pigweed ([12]; 125 g ai/ha)	Plant response rating, Pigweed ([12]; 500 g ai/ha, approx. 10 d)	Plant response rating, Foxtail, Giant ([13]; 125 g ai/ha)	Plant response rating, Foxtail, Giant ([13]; 500 g ai/ha)	further results
CCCOc1nc(-c2ccc(F)cc2)nn1Cc1ccnc(C(F)(F)F)c1 [Compound 10]	20	30	10	20	40	90	30	100	100	100	0	30	50	90	100	100	100	100	50	90	Plant response rating, Sedge, Umbrella, Flood ([6]; 125 g ai/ha): 80; Plant response rating, Barnyardgrass, Flood ([7]; 125 g ai/ha): 45; Plant response rating, Rice, Flood ([11]; 125 g ai/ha): 20; Plant response rating, Barnyardgrass ([14]; 125 g ai/ha): 40; Plant response rating, Barnyardgrass ([14]; 500 g ai/ha): 80; Plant response rating, Foxtail, Giant ([15]; 125 g ai/ha): 100; Plant response rating, Foxtail, Giant ([15]; 500 g ai/ha, approx. 10 d): 100; Plant response rating, Wheat ([16]; 125 g ai/ha): 0; Plant response rating, Wheat ([16]; 500 g ai/ha, approx. 10 d): 20; Plant response rating, Velvetleaf ([17]; 125 g ai/ha): 50; Plant response rating, Velvetleaf ([17]; 500 g ai/ha): 80; Plant response rating, Corn ([18]; 125 g ai/ha): 0; Plant response rating, Corn ([18]; 500 g ai/ha, approx. 10 d): 20; Plant response rating, Wheat ([19]; 125 g ai/ha): 10; Plant response rating, Wheat ([19]; 500 g ai/ha): 10; Plant response rating, Ducksalad, Flood ([20]; 125 g ai/ha): 70
Cc1nc(-c2ccc(C(F)(F)F)cc2)nn1Cc1ccnc(C(F)(F)F)c1 [Compound 7]	30	50	10	60	50	90	20	80	90	100	20	70	50	80	100	100	90	100	60	90	Plant response rating, Sedge, Umbrella, Flood ([6]; 250 g ai/ha): 85; Plant response rating, Barnyardgrass, Flood ([7]; 250 g ai/ha): 0; Plant response rating, Rice, Flood ([11]; 250 g ai/ha): 0; Plant response rating, Barnyardgrass ([14]; 125 g ai/ha): 40; Plant response rating, Barnyardgrass ([14]; 500 g ai/ha): 80; Plant response rating, Foxtail, Giant ([15]; 125 g ai/ha): 80; Plant response rating, Foxtail, Giant ([15]; 500 g ai/ha, approx. 10 d): 100; Plant response rating, Wheat ([16]; 125 g ai/ha): 0; Plant response rating, Wheat ([16]; 500 g ai/ha, approx. 10 d): 10; Plant response rating, Velvetleaf ([17]; 125 g ai/ha): 80; Plant response rating, Velvetleaf ([17]; 500 g ai/ha): 100; Plant response rating, Corn ([18]; 125 g ai/ha): 10; Plant response rating, Corn ([18]; 500 g ai/ha, approx. 10 d): 10; Plant response rating, Wheat ([19]; 125 g ai/ha): 20; Plant response rating, Wheat ([19]; 500 g ai/ha): 50; Plant response rating, Ducksalad, Flood ([20]; 250 g ai/ha): 0
